In publication PMC3733449 (Bioorganic & medicinal chemistry, 2013):
Like-named read-outs stand apart in the source and are kept apart here. Marks after values point to notes of the source that are not given here. One block for each compound: values may come before it.

Columns and labels:
[1] = published data; ref Leopoldo et al, 2002. [24]; cited from earlier work
[2] = target: human D3 dopamine receptor (Homo sapiens, UniProt P35462); assay: Competitive radioligand binding, D3 dopamine receptor; settings: D2:D3 Ki value ratio
Chain of human D3 dopamine receptor (P35462 whole entry): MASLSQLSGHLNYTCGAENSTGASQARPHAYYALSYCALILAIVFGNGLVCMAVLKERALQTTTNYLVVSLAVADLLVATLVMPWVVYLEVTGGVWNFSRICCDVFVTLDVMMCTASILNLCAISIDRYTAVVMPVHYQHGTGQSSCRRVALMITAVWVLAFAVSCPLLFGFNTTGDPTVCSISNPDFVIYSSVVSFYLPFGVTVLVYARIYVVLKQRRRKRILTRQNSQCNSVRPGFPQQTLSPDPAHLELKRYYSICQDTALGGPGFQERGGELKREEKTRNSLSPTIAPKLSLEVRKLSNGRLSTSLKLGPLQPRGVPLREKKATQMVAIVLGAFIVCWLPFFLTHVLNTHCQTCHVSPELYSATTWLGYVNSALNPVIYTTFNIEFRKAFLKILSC

[3] = target: T1, human D3 receptors expressed in stably transfected HEK 293 cells (Homo sapiens, UniProt P35462); settings: result in words, previously reported; cited from earlier work
T1 sequence (P35462 whole entry): as above

[4] = target: T1, human D3 receptors expressed in stably transfected HEK 293 cells; assay: Forskolin-dependent whole cell adenylyl cyclase inhibition assay, D3; type: cell-based; settings: result in words

Structure (SMILES): O=C(NCCCCN1CCN(c2cccc(Cl)c2Cl)CC1)c1ccc2c(c1)Cc1ccccc1-2 [NGB-2904]
Log P [1]: 6.94 ^h

D2/D3 (Ki ratio) [2]: > 100
Structure (SMILES): COc1ccccc1N1CCCN(CCCCNC(=O)c2ccc(-c3ccsc3)cc2)CC1 [Compound 11a, N-(4-(4-(2-Methoxyphenyl)-1,4-diazepan-1-yl)butyl)-4-(thiophen-3-yl)benzamide]

Structure (SMILES): COc1ccccc1N1CCN(CCCCNC(=O)c2ccc(CCF)cc2)CC1 [WC-44]
efficacy class at D3 receptors [3]: full agonist

efficacy class at D3 receptors [4]: strong partial agonist
Structure (SMILES): COc1ccccc1N1CCCN(CCCCNC(=O)c2ccc(CCF)cc2)CC1 [Compound 11e, 4-(2-Fluoroethyl)-N-(4-(4-(2-methoxyphenyl)-1,4-diazepan-1-yl)butyl)benzamide]
